Patent publication US20010010822A1, “LIPID COMPLEXES AND LIPOSOMES OF HIGHLY INSOLUBLE PLATINUM COMPLEXES” (priority 1999, published 2001)

Tested on: PLATINUM RESISTANT P388 CELL LINE
Test: Anti-tumor activity of DACH-platinum compounds against platinum resistant P388 cell line
Assay type: in vivo
Conditions: initial tumor burden 1.0 × 10^6

N.N.[Cl][Pt][Cl] [Cisplatin]
% Increase in Length of Survival (dose 3.5 mg/kg): +3%
% T/C (dose 3.5 mg/kg): 103.8%
Log10 Change in Tumor Burden (dose 3.5 mg/kg): +1.7
Median Day of Death (dose 3.5 mg/kg): 13.5
% Increase in Length of Survival (dose 5.3 mg/kg): +15%
% T/C (dose 5.3 mg/kg): 115.4%
Log10 Change in Tumor Burden (dose 5.3 mg/kg): +1.5
Median Day of Death (dose 5.3 mg/kg): 15.0
% Increase in Length of Survival (dose 8.0 mg/kg): +23%
% T/C (dose 8.0 mg/kg): 123.1%
Log10 Change in Tumor Burden (dose 8.0 mg/kg): +1.5
Median Day of Death (dose 8.0 mg/kg): 16.0
